# In patent publication EP0695746A2, “Antiviral compounds and pharmaceutical compositions” (PHARMA MAR, S.A., priority 1994, dated 1996):
# Legend:
# HIV-1 p24 core antigen = experiment: p24 ELISA on supernatant of the cytotoxic assay wells; assay type: cell-based
# Experimental: Secondary assays for evaluating antiviral activity included the syncytial-forming assay and p24 ELISA's. The first assay was described above. The p24 assay was performed by purchasing the p24 kit for the human immunodeficiency virus for p24 antigen assays from the Coulter Corporation, Hialeah, FL. […] The preparation of a mouse monoclonal antibody with high specificity and affinity for the viral p24 protein has allowed the development of an extremely sensitive ELISA for HIV-1 p24 core antigen.
# An assay for antiviral activity to HIV-1 was started on 10-28-93 using the cytotoxic assay as described above and HIV-1 activity was observed microscopically in this sample on day 4 of the cytotoxic assay. On day six, 10 µl of supernatant fluid were removed from the cytotoxic wells and assayed for p24. The results of the cytotoxic assay, p24 assay, and syncytia assay were: […]
# CD-1 mice = experiment: In vivo toxicity test, single injection
# Experimental: The LD₅₀ for the compound was > 150 mg/kg.
# HIV-1 RF [1] = experiment: XTT cytoprotection assay (called Cytotoxic Assay in the tables), antiviral activity; assay type: cell-based
# Experimental: Changes were made to accommodate changes in solvent systems and drug test dilutions.
# For the cytoprotection assay CEM-SS cells and HIV-1 RF strain of virus were used. Test samples were first diluted in an appropriate solvent, and 10 to 50 µl were transferred to the test plate. If the solvent was methanol or a similar solvent, the plates were allowed to evaporate. If medium was used for dilutions the plates were covered and the volume of test sample was taken into consideration when adding cells and virus. At each test concentration 50 µl of sample were added to three wells, one for toxicity tests, one for color control, and one for antiviral activity. Assuming the solvent was evaporated, 150 µl cells are added to all wells, except the control wells for medium only, so that the cell concentration per well was 5000. Then 50 µl of HIV-1 virus was added to each test well so that the M.O.I. was approximately 0.31. For toxicity tests 50 µl of medium were added to the control well. The plates were incubated in 5% CO₂ for 6 days at 37°C. After incubation, the XTT solution was added to the plates, and after 4 hours incubation at 37°C the plates are covered with clear plastic sealers. Cell viability was measured by the visible light absorbance at 450 nm and a reference wavelength of 650 nm. Data were expressed as a percentage of formazan produced in drug test wells compared to formazan produced in wells of untreated control cells.
# Cells were maintained in the logarithmic growth state by subdividing cultures when the cell concentrations reach an upper limit of 1 x 10⁶ cells per ml.
# For antiviral assays CEM-SS cells at a cell concentration of 5.0 x 10⁵ in serum free medium were treated with polybrene at a concentration of 1 µg/ml and incubated for 30 to 60 minutes at 37°C. Polybrene medium was removed by centrifugation, and CEM-SS cells were resuspended in growth medium. If solvents were evaporated the cell concentration was 33,500 cells per ml so that 150 µl contained 5000 cells. If medium was the dilution vehicle then the cell concentration was 50,000 so that 100 µl contained 5000 cells. The total test volume for medium, cells, and virus was 200 µl.
# Store frozen at -20°C (0.1 to 0.2 ml per vial). Warm to 37°C as needed. […] PMS dilution for XTT medium: Dilute PMS stock from freezer 1:100 in PBS. Add 4% to medium. […] Formula for XTT/PMS solution for 1 plate (5 ml per plate)
# Dissolve XTT in medium, add PMS/PBS. Warm to 37°C for approximately 10 to 15 minutes to obtain an homogeneous solution. Add 50 µl per plate Incubate for 4 hours. Read A(450-650) nm. […] The data was processed to convert optical density readings to a percentage of inhibition compared to CEM-SS cells that have not been infected with HIV-1 virus. C = cells D = Drug or Sample M = Medium V = Virus
# % toxicity = 100 - [(((M + D + C) - M) ÷ ((M + C) - M)) * 100] [formula] % antiviral = ((M + D + C + V)-V-M)) ÷ ((M + D + C)-(V-M))) * 100 [formula]
# CEM-SS cells [2] = experiment: XTT cytoprotection assay (Cytotoxic Assay), toxicity wells without virus; assay type: cell-based, human; conditions: Table VI, assay date
# Experimental: This assay is a measure of the viability of human T cell lines after infection with HIV in the presence of potential antiviral compounds. The results are assessed spectrophometrically by reading optical densities after the addition of XTT to determine if the viable cells reduced the pale yellow tetrazolium reagent (XTT) to an orange formazan product. This assay can be utilized for the initial screen of large numbers of samples. For the cytoprotection assay CEM-SS cells and HIV-1 RF strain of virus were used. Test samples were first diluted in an appropriate solvent, and 10 to 50 μl were transferred to the test plate. If the solvent was methanol or a similar solvent, the plates were allowed to evaporate. If medium was used for dilutions the plates were covered and the volume of test sample was taken into consideration when adding cells and virus. At each test concentration 50 μl of sample were added to three wells, one for toxicity tests, one for color control, and one for antiviral activity. Assuming the solvent was evaporated, 150 μl cells are added to all wells, except the control wells for medium only, so that the cell concentration per well was 5000. Then 50 μl of HIV-1 virus was added to each test well so that the M.O.I. was approximately 0.31. For toxicity tests 50 μl of medium were added to the control well. The plates were incubated in 5% CO2 for 6 days at 37°C. After incubation, the XTT solution was added to the plates, and after 4 hours incubation at 37°C the plates are covered with clear plastic sealers. Cell viability was measured by the visible light absorbance at 450 nm and a reference wavelength of 650 nm. Data were expressed as a percentage of formazan produced in drug test wells compared to formazan produced in wells of untreated control cells. CEM-SS cells were maintained with growth medium RPMI 1640, 10% fetal bovine serum, 2% L-glutamine (200 mM), and 50 μg/ml gentamicin in a 5% CO2 water-saturated atmosphere. Cells were maintained in the logarithmic growth state by subdividing cultures when the cell concentrations reach an upper limit of 1 x 10^6 cells per ml. […] Polybrene medium was removed by centrifugation, and CEM-SS cells were resuspended in growth medium. If solvents were evaporated the cell concentration was 33,500 cells per ml so that 150 μl contained 5000 cells. If medium was the dilution vehicle then the cell concentration was 50,000 so that 100 μl contained 5000 cells. The total test volume for medium, cells, and virus was 200 μl. Dissolve XTT in medium, add PMS/PBS. Warm to 37°C for approximately 10 to 15 minutes to obtain an homogeneous solution. Add 50 μl per plate Incubate for 4 hours. Read A(450-650) nm. B.2.5. Data processing After the plates were read spectrophotometrically the data was transferred via modem from the laboratory to the office. The data was processed to convert optical density readings to a percentage of inhibition compared to CEM-SS cells that have not been infected with HIV-1 virus. C = cells D = Drug or Sample M = Medium V = Virus M = medium only in well V = medium + CEM-SS cells + virus in well (M + C) = medium + CEM-SS cells (M + D) = medium + drug in well (M + D + C) = medium + drug + CEM-SS cell in well (M+D+C+V) = medium + drug + CEM-SS cells + virus in well.
# HIV-1 RF [3] = experiment: Syncytium-forming assay (Syncytia assay), antiviral activity; assay type: cell-based
# Source text: To determine the HIV-1 viral titers the quantitative infectivity syncytium-forming assay described by P.L. Nara and P.J. Fischinger, "Quantitative Infectivity Assay for HIV-1 and -2," Nature, 332: 469 (1988)) was used. In this assay a single infectious unit of virus infects a single cell and initiates a focal cell change such as syncytium formation. Because a single infectious unit causes a single response, a linear relationship exists between the number of cytopathic effects caused by viral infection and the first order of virus concentration. This quantitative assay can be used to determine the titers of the HIV-1 in viral stocks, neutralization tests, and antiviral assays.
# The quantitative infectivity syncytium-forming assay is applied for the direct quantitation of fusigenic virus-infected cells. CEM-SS cells were used for the syncytium-forming assay. CEM-SS cell are human T4-lymphoblastoid cells of a cell line initially derived by G.E. Foley, et al., "Continuous Culture to Human Lymphoblasts from Peripheral Blood of a Child with Acute Leukemia," Cancer, 18: 522 (1965) and biologically cloned by Nara et al., supra. The cells for this assay were provided by Dr. Nara.
# CEM-SS cells were maintained in a growth medium of RPMI 1640, 10% fetal bovine serum, 1% L-glutamine (200 mM) and 50 µg/ml of gentamicin. CEM-SS cells grow in suspension. The cells have been cloned for both poly-L-lysine-induced adherence to microtiter plates and virus-induced syncytial and fusogenic sensitivity following infection with either cell-free or cell-associated HIV-1 and HIV-2. It has been determined that the cells are negative for virus including human retroviruses as determined by electron microscopy and reverse transcriptase analysis.
# A.4.1. Use 96-wells flat bottom tissue culture plates and score the bottoms of all wells into 4 quadrants. A.4.2. Add 50 µl/well of diluted poly-L-lysine. Prepare stock poly-L-lysine (Poly-L-lysine hydrobromide, Sigma catalog, cat. # P-1399) at 5 mg/ml and store at -20°C for future use. For the assay dilute the stock poly-L-lysine 1:100 using phosphate buffered saline (PBS). A.4.3. Incubate plates at room temperature for no less than 30 minutes. A.4.4. Remove poly-L-lysine from wells. A.4.5. Wash the plates with 100 µl/well of Dulbecco's PBS and remove the excess PBS. A.4.6. Dilute CEM-SS cells in a logarithmic state of growth to 0.5 x 10⁶ cells per ml in a serum free medium and add 1 µg/ml polybrene. Incubate the cell suspension at 37°C for 60 minutes. Centrifuge at 800 rpm for 10 minutes and decant the supernatant fluid. A.4.7. Dilute the treated CEM-SS cell suspension to 5.0 x 10⁵ cells. Add 100 µl to the test wells so that the final cell concentration is 50,000 cells per well. Make ten-fold dilutions of the viral stock. Add 50 µl to the test wells. Add 50 µl growth medium to bring the total test volume to 200 µl. On day 3 place a clear plastic film (plate sealers, Dynatech Laboratories, Inc., cat # 001-010-3501) over the microtiter wells and evaluate for syncytium forming units (SFU).
# The assay described above for determining viral titers of HIV-1 stock virus can be modified and used to evaluate the antiviral activity of compounds. A.5.1. Plates are treated with poly-L-lysine the same as above, and CEM-SS cells are polybrene treated. A.5.2. Dilute test compound in medium to desired concentrations. A.5.3. Add 100 µl CEM-SS cells to each well so that the final cell concentration is 50,000 cells per well. A.5.4. Add 50 µl of the test compound at each respective concentration to at least two wells, or four for one replicate assay. A.5.5. Add 50 µl growth medium to drug control wells. A.5.6. Add 50 µl HIV-1 virus to test wells at a concentration that provides approximately 100 SFU of virus per well. A.5.7. Run appropriate cell and viral controls. A.5.8. Incubate plates for 3 to 5 days. A.5.9. On day 3 to 5 cover plates with clear plastic sealers and count syncytial-forming units in the test wells and viral control wells.
# CEM-SS cells [4] = experiment: Syncytium-forming assay (Syncytia assay), toxicity in drug control wells; assay type: cell-based; conditions: Homo sapiens
# Experimental: The assay described above for determining viral titers of HIV-1 stock virus can be modified and used to evaluate the antiviral activity of compounds. A.5.1. Plates are treated with poly-L-lysine the same as above, and CEM-SS cells are polybrene treated. A.5.2. Dilute test compound in medium to desired concentrations. A.5.3. Add 100 µl CEM-SS cells to each well so that the final cell concentration is 50,000 cells per well. A.5.4. Add 50 µl of the test compound at each respective concentration to at least two wells, or four for one replicate assay. A.5.5. Add 50 µl growth medium to drug control wells. A.5.6. Add 50 µl HIV-1 virus to test wells at a concentration that provides approximately 100 SFU of virus per well. A.5.7. Run appropriate cell and viral controls. A.5.8. Incubate plates for 3 to 5 days. A.5.9. On day 3 to 5 cover plates with clear plastic sealers and count syncytial-forming units in the test wells and viral control wells. To determine if the test compounds have antiviral activity, compare the total number of SFU in the viral control to those enumerated in the test wells.
# HIV-1 = HIV-1 antiviral in vitro assays; assay type: cell-based
# [5] = Human immunodeficiency virus 1, Table VI, Cytotoxic Assay, assay date, read-out: EC50 (converted)
# [6] = Homo sapiens, CEM-SS, read-out: IC50 (converted)
# [7] = Human immunodeficiency virus 1, Table VI, Syncytia Assay, 06-29-94, read-out: EC50 (converted)
# [8] = Table VI, Syncytia Assay, 06-29-94
# [9] = Table III, Syncytia Assay (M.O.I. = .005)
structure (smiles),measurement,setting,value
CC1(C)CCC[C@@]2(C)[C@H](c3ccoc3)C(=O)[C@H]3O[C@@]312 (racemic) [PM-92131 (±)],EC50,"HIV-1 p24 core antigen; Human immunodeficiency virus 1, Table I, P24 ELISA",0.5 µg/mL
same,EC50,"HIV-1 p24 core antigen; Human immunodeficiency virus 1, Table III, p24 ELISA Assay",0.35 µg/mL
same,LD₅₀,CD-1 mice,> 150 mg/kg
CC1(C)CCC[C@]2(C)[C@H](c3ccsc3)C(=O)[C@H]3O[C@@]312 (racemic) [PM-94116 & PM-94117 (1:1)],EC50,HIV-1 RF [1]; [5],2.15 µg/mL
same,SI,"HIV-1 RF [1]; Table VI, Cytotoxic Assay",2
same,IC50,CEM-SS cells [2]; [6],4.35 µg/mL
same,EC50,HIV-1 RF [3]; [7],1 µg/mL
same,SI,HIV-1 RF [3]; [8],11
same,IC50,CEM-SS cells [4]; [8],11 µg/mL
same,HIV-1 antiviral activity (in words),HIV-1,exhibit anti-HIV-1 activity
CC1(C)CCC[C@@]2(C)[C@H](c3ccccc3)C(=O)[C@H]3O[C@@]312 (racemic) [PM-94118(±)],EC50,HIV-1 RF [1]; [5],3 µg/mL
same,IC50,CEM-SS cells [2]; [6],9 µg/mL
same,IC50,CEM-SS cells [2],1.87 μg/200 μl
same,EC50,HIV-1 RF [3]; [7],2 µg/mL
same,SI,HIV-1 RF [3]; [8],10
same,IC50,CEM-SS cells [4]; [8],20 µg/mL
CC1(C)CCC[C@@]2(C)[C@H](c3ccsc3)C(=O)[C@H]3O[C@@]312 (racemic) [SU-0096(±)],IC50,CEM-SS cells [2]; [6],4.5 µg/mL
"Cc1cn([C@H]2C[C@H](N=[N+]=[N-])[C@@H](CO)O2)c(=O)[nH]c1=O [AZT, 3'-azido-3'-deoxythymidine, reference compound]",EC50,"HIV-1 RF [1]; Human immunodeficiency virus 1, Table V, Cytoprotection Assay, MOI 0.037, read-out: EC₅₀",100 nM
same,EC50,"HIV-1 RF [1]; Human immunodeficiency virus 1, Table V, Cytoprotection Assay, MOI 0.074, read-out: EC₅₀",460 nM
same,EC50,"HIV-1 RF [1]; Human immunodeficiency virus 1, Table V, Cytoprotection Assay, MOI 0.149, read-out: EC₅₀",1300 nM
same,EC50,"HIV-1 RF [3]; Human immunodeficiency virus 1, Table IV, Syncytia Assay, MOI 0.002, read-out: EC₅₀",10 nM
same,EC50,"HIV-1 RF [3]; Human immunodeficiency virus 1, Table IV, Syncytia Assay, MOI 0.004, read-out: EC₅₀",10 nM
same,EC50,"HIV-1 RF [3]; Human immunodeficiency virus 1, Table IV, Syncytia Assay, MOI 0.008, read-out: EC₅₀",10 nM
same,EC50,"HIV-1 RF [3]; Human immunodeficiency virus 1, Table IV, Syncytia Assay, MOI 0.016, read-out: EC₅₀",70 nM
CC1(C)CCC[C@]2(C)[C@@H](c3ccoc3)C(=O)[C@@H]3O[C@]312 [PM-92131 (-)],EC50,"HIV-1 RF [3]; Human immunodeficiency virus 1, Table III, Syncytia Assay (M.O.I. = .005), read-out: EC50 (converted)",4 µg/mL
same,SI,HIV-1 RF [3]; [9],10
same,IC50,CEM-SS cells [4]; [9],40 µg/mL
same,HIV-1 antiviral activity (in words),HIV-1,active against HIV-1
CC1(C)CCC[C@@]2(C)[C@@H](c3ccsc3)C(=O)[C@@H]3O[C@]312 [PM-94117],IC50,CEM-SS cells [2]; [6],12.5 µg/mL
same,EC50,HIV-1 RF [3]; [7],1.2 µg/mL
same,SI,HIV-1 RF [3]; [8],13
same,IC50,CEM-SS cells [4]; [8],15 µg/mL
